Results reported in patent US20240397940A1, “COMPOSITIONS COMPRISING A SATURATED OR UNSATURATED ALIPHATIC ACID AND A NON-IONIC SURFACTANT FOR ENHANCING PENETRATION OF PESTICIDE COMPONENT” (TERRAMERA, INC., priority 2021, published 2024).

Experiments:
Type in all cases: in vitro ADME
[1] = test system: waxy cuticles of whole wheat leaves; assay: Franz cell leaf penetration of 3-Nonenoic acid (Example 5); settings: penetration ratio of 3-Nonenoic acid (500 ppm), epoxiconazole TGAI 50 ppm and adjuvant 1,000 ppm where included, 24 hours
Experimental: (§1) This ratio may be expressed based on:
(§2) Several donor solutions were prepared to assess penetration of 3-Nonenoic acid across waxy cuticles of whole wheat leaves. Each donor solution comprised 500 ppm 3-Nonenoic acid. Certain donor solutions included an azole fungicide, namely epoxiconazole technical grade active ingredient (TGAI) fungicide, each at a rate of 50 ppm. Epoxiconazole is commercially available from MilliporeSigma, St. Louis, MO, USA, as a technical grade active ingredient. […] In this example, the adjuvants tested were non-ionic surfactants comprising C11 linear alcohol ethoxylates (available from Stepan Company of Northfield, IL as Biosoft® N1-5, Biosoft® N1-7, and Biosoft® N1-9).
(§3) The permeation period was 24 hours. […] The powderized leaf was mixed with acetone as a solvent.

[2] = test system: waxy cuticles of whole wheat leaves; assay: Franz cell leaf penetration of epoxiconazole (Example 7); settings: 24 h, 50 ppm
Experimental: as §1
Several donor solutions were prepared to assess penetration of an azole fungicide, namely epoxiconazole, across waxy cuticles of whole wheat leaves. Epoxiconazole TGAI was provided in each donor solution at a rate of 50 ppm. Epoxiconazole is available from MilliporeSigma, St. Louis, MO, USA, and Shanghai Terppon Chemical Co., Ltd., Shanghai, China as a technical grade active ingredient. Certain donor solutions comprised 500 ppm 3-Nonenoic acid.
as §3

[3] = test system: waxy cuticles of whole wheat leaves; assay: Franz cell leaf penetration of pyraclostrobin, Headline EC (Example 6); settings: penetration ratio of pyraclostrobin (236 ppm, Headline EC), 5-Hexenoic acid 1,000 ppm and adjuvant 1,000 ppm where included, 24 hours
Experimental: as §1
(§4) Several donor solutions were prepared to assess penetration of a strobilurin fungicide active ingredient, namely pyraclostrobin, across waxy cuticles of whole wheat leaves. Each donor solution comprised Headline® EC, a commercially available fungicide from BASF Corporation comprising pyraclostrobin. Such donor solutions comprised 236 ppm pyraclostrobin. Pyraclostrobin is also commercially available in end-user product form from BASF Corporation as Headline® SC fungicide. Certain donor solutions included 1,000 ppm 5-Hexenoic acid. […] In this example, the adjuvants tested were non-ionic surfactants comprising C11 linear alcohol ethoxylates (available from Stepan Company of Northfield, IL as Biosoft® N1-5, Biosoft® N1-7, and Biosoft® N1-9).
as §3

[4] = test system: waxy cuticles of whole wheat leaves; assay: Franz cell leaf penetration of pyraclostrobin, Headline SC (Example 8); settings: penetration ratio of pyraclostrobin (236 ppm, Headline SC), 5-Hexenoic acid 1,000 ppm and adjuvant 1,000 ppm where included, 24 hours
Experimental: as §1
as §4, with “SC,” for “EC,”, “pyraclostrobin.” for “pyraclostrobin. Pyraclostrobin is also commercially available in end-user product form from BASF Corporation as Headline® SC fungicide.”, “included an aliphatic acid, namely 5-Hexenoic acid. Such donor solutions comprised” for “included”
as §3

[5] = test system: waxy cuticles of whole soybean leaves; assay: Franz cell leaf penetration of azoxystrobin, Mero (Example 14); settings: penetration ratio of azoxystrobin (343.5 ppm, Quadris), trans-2-Hexenoic acid 1,500 ppm and Mero 31.3 ppm where included, 24 hours
Experimental: as §1
Several donor solutions were prepared to assess penetration of a strobilurin fungicide, namely azoxystrobin, across waxy cuticles of whole soybean leaves. Each donor solution comprised Quadris®, a commercially available fungicide from Syngenta Crop Protection comprising azoxystrobin. Such donor solutions comprised 343.5 ppm azoxystrobin. Certain donor solutions included 1,500 ppm trans-2-Hexenoic acid.
(§5) The permeation period was 24 hours.

[6] = test system: waxy cuticles of whole wheat leaves; assay: Franz cell leaf penetration of 3-Octenoic acid (Example 3); settings: penetration ratio of 3-Octenoic acid (500 ppm), epoxiconazole TGAI 50 ppm and adjuvant 1,000 ppm where included, 24 hours
Experimental: as §1
as §2, with “3-Octenoic” for “3-Nonenoic”, “N1-5” for “N1-5, Biosoft® N1-7,”, “Biosoft®) N1-7).” for “Biosoft® N1-9).”
as §3

[7] = test system: waxy cuticles of whole soybean leaves; assay: Franz cell leaf penetration of trans-2-Hexenoic acid, Biosoft adjuvants (Example 2); settings: penetration ratio of trans-2-Hexenoic acid (1,500 ppm), azoxystrobin 343.5 ppm (Quadris) and adjuvant 1,000 ppm where included, 24 hours
Source text: as §1
Each donor solution comprised 1,500 ppm trans-2-Hexenoic acid. Certain donor solutions included a strobilurin fungicide, namely azoxystrobin. Such donor solutions comprised Quadris®, a commercially available fungicide from Syngenta Crop Protection comprising azoxystrobin. Such donor solutions comprised 343.5 ppm azoxystrobin. […] In this example, the adjuvants tested were non-ionic surfactants comprising C11 linear alcohol ethoxylates (available from Stepan Company of Northfield, IL as Biosoft® N1-5, Biosoft® N1-7, and Biosoft® N1-9).
as §5

[8] = test system: waxy cuticles of whole soybean leaves; assay: Franz cell leaf penetration of trans-2-Hexenoic acid, Mero (Example 15); settings: penetration ratio of trans-2-Hexenoic acid (1,500 ppm), azoxystrobin 343.5 ppm (Quadris) and Mero 31.3 ppm where included, 24 hours
Experimental: as §1
Each donor solution comprised 1,500 ppm trans-2-Hexenoic acid. Certain donor solutions included a strobilurin fungicide, namely azoxystrobin. Such donor solutions comprised Quadris®, a commercially available fungicide from Syngenta Crop Protection comprising azoxystrobin. Such donor solutions comprised 343.5 ppm azoxystrobin.
as §5

[9] = test system: waxy cuticles of whole wheat leaves; assay: Franz cell leaf penetration of 5-Hexenoic acid (Example 4); settings: penetration ratio of 5-Hexenoic acid (1,000 ppm), pyraclostrobin 236 ppm (Headline EC) and adjuvant 1,000 ppm where included, 24 hours
Experimental: as §1
Several donor solutions were prepared to assess penetration of 5-Hexenoic acid across waxy cuticles of whole wheat leaves. Each donor solution comprised 1,000 ppm 5-Hexenoic acid (except where otherwise noted). Certain donor solutions included a strobilurin fungicide, namely pyraclostrobin. Such donor solutions comprised Headline® EC, a commercially available fungicide from BASF Corporation comprising pyraclostrobin. Such donor solutions comprised 236 ppm pyraclostrobin. […] In this example, the adjuvants tested were non-ionic surfactants comprising C11 linear alcohol ethoxylates (available from Stepan Company of Northfield, IL as Biosoft® N1-5, Biosoft® N1-7, and Biosoft® N1-9).
as §3

CCCCCC=CCC(=O)O [3-Nonenoic acid]
Aliphatic Acid Penetration [1]: 17.6%

Fc1ccc([C@]2(Cn3cncn3)O[C@H]2c2ccccc2Cl)cc1 (racemic) [Epoxiconazole, epoxiconazole]
Pesticidal Active Ingredient Penetration [2]: 18.2%

COC(=O)N(OC)c1ccccc1COc1ccn(-c2ccc(Cl)cc2)n1 [Pyraclostrobin, pyraclostrobin]
Pesticidal Active Ingredient Penetration [3]: 7.5%
Pesticidal Active Ingredient Penetration [4]: 7.1%

CO/C=C(/C(=O)OC)c1ccccc1Oc1cc(Oc2ccccc2C#N)ncn1 [Azoxystrobin, azoxystrobin]
Pesticidal Active Ingredient Penetration [5]: 0.7%

CCCCC=CCC(=O)O [3-octenoic acid, 3-Octenoic acid]
Aliphatic Acid Penetration [6]: 13.4%

CCC/C=C/C(=O)O [trans-2-hexenoic acid, trans-2-Hexenoic acid]
Aliphatic Acid Penetration [7]: 13.2%
Aliphatic Acid Penetration [8]: 13.2%

C=CCCCC(=O)O [5-Hexenoic acid]
Aliphatic Acid Penetration [9]: 6.8%
